Emax and EC50 data for 20 compounds are collected here from patent US10738030B2, “Modulators of cystic fibrosis transmembrane conductance regulator” (Vertex Pharmaceuticals Incorporated, priority 2016, dated 2020).

A value given as a limit tells only on which side of the number the result lay.

This assay concerns the target T1, F508del (Homo sapiens, UniProt P13569, DEL508-508).
T1 construct: expressed in transfected cells
Briefly: Membrane potential optical assay (FRET voltage-sensor dyes), identification of correction compounds. It is filed as cell-based. Conditions: NIH3T3 cells stably expressing F508del, procedures described above; for Emax: maximum efficacy, read-out: Max Efficacy; for EC50: modulation of CFTR activity. As to the method: (§1) NIH3T3 mouse fibroblasts stably expressing F508del are used for optical measurements of membrane potential. The cells are maintained at 37° C. in 5% CO2 and 90% humidity in Dulbecco's modified Eagle's medium supplemented with 2 mM glutamine, 10% fetal bovine serum, 1×NEAA, β-ME, 1× pen/strep, and 25 mM HEPES in 175 cm^2 culture flasks. For all optical assays, the cells were seeded at 12,000 cells/well in 384-well matrigel-coated plates and cultured for 18-24 hrs at 37° C. for the potentiator assay. For the correction assays, the cells are cultured at 37° C. with and without compounds for 18-24 hours.
Membrane potential optical methods for assaying F508del modulation properties of compounds.
The optical membrane potential assay utilized voltage-sensitive FRET sensors described by Gonzalez and Tsien (See Gonzalez, J. E. and R. Y. Tsien (1995) “Voltage sensing by fluorescence resonance energy transfer in single cells” Biophys J 69(4): 1272-80, and Gonzalez, J. E. and R. Y. Tsien (1997) “Improved indicators of cell membrane potential that use fluorescence resonance energy transfer” Chem Biol 4(4): 269-77) in combination with instrumentation for measuring fluorescence changes such as the Voltage/Ion Probe Reader (VIPR) (See, Gonzalez, J. E., K. Oades, et al. (1999) “Cell-based assays and instrumentation for screening ion-channel targets” Drug Discov Today 4(9): 431-439).
These voltage sensitive assays are based on the change in fluorescence resonant energy transfer (FRET) between the membrane-soluble, voltage-sensitive dye, DiSBAC2(3), and a fluorescent phospholipid, CC2-DMPE, which is attached to the outer leaflet of the plasma membrane and acts as a FRET donor. Changes in membrane potential (Vm) cause the negatively charged DiSBAC2(3) to redistribute across the plasma membrane and the amount of energy transfer from CC2-DMPE changes accordingly. The changes in fluorescence emission were monitored using VIPR™ II, which is an integrated liquid handler and fluorescent detector designed to conduct cell-based screens in 96- or 384-well microtiter plates.
To identify small molecules that correct the trafficking defect associated with F508del; a single-addition HTS assay format was developed. The cells were incubated in serum-free medium for 16 hrs at 37° C. in the presence or absence (negative control) of test compound. As a positive control, cells plated in 384-well plates were incubated for 16 hrs at 27° C. to “temperature-correct” F508del. The cells were subsequently rinsed 3× with Krebs Ringers solution and loaded with the voltage-sensitive dyes. To activate F508del, 10 μM forskolin and the CFTR potentiator, genistein (20 μM), were added along with Cl^−-free medium to each well. The addition of Cl^−-free medium promoted Cl^− efflux in response to F508del activation and the resulting membrane depolarization was optically monitored using the FRET-based voltage-sensor dyes.
• Bath Solution #1: (in mM) NaCl 160, KCl 4.5, CaCl2 2, MgCl2 1, HEPES 10, pH 7.4 with NaOH. • Chloride-free bath solution: Chloride salts in Bath Solution #1 (above) are substituted with gluconate salts. • CC2-DMPE: Prepared as a 10 mM stock solution in DMSO and stored at −20° C. • DiSBAC2(3): Prepared as a 10 mM stock in DMSO and stored at −20° C. Cell Culture
as §1, with “seeded at 30,000/well in 384-well” for “seeded at 12,000 cells/well in 384-well”, “cultured for 2 hrs at” for “cultured for 18-24 hrs at”, “37° C. before culturing at 27° C. for 24 hrs for the” for “37° C. for the”, “cultured at 27° C. or 37° C.” for “cultured at 37° C.”, “compounds for 16-24 hours.” for “compounds for 18-24 hours.”

T1 sequence (P13569 with tags, fused parts or gaps DEL508-508): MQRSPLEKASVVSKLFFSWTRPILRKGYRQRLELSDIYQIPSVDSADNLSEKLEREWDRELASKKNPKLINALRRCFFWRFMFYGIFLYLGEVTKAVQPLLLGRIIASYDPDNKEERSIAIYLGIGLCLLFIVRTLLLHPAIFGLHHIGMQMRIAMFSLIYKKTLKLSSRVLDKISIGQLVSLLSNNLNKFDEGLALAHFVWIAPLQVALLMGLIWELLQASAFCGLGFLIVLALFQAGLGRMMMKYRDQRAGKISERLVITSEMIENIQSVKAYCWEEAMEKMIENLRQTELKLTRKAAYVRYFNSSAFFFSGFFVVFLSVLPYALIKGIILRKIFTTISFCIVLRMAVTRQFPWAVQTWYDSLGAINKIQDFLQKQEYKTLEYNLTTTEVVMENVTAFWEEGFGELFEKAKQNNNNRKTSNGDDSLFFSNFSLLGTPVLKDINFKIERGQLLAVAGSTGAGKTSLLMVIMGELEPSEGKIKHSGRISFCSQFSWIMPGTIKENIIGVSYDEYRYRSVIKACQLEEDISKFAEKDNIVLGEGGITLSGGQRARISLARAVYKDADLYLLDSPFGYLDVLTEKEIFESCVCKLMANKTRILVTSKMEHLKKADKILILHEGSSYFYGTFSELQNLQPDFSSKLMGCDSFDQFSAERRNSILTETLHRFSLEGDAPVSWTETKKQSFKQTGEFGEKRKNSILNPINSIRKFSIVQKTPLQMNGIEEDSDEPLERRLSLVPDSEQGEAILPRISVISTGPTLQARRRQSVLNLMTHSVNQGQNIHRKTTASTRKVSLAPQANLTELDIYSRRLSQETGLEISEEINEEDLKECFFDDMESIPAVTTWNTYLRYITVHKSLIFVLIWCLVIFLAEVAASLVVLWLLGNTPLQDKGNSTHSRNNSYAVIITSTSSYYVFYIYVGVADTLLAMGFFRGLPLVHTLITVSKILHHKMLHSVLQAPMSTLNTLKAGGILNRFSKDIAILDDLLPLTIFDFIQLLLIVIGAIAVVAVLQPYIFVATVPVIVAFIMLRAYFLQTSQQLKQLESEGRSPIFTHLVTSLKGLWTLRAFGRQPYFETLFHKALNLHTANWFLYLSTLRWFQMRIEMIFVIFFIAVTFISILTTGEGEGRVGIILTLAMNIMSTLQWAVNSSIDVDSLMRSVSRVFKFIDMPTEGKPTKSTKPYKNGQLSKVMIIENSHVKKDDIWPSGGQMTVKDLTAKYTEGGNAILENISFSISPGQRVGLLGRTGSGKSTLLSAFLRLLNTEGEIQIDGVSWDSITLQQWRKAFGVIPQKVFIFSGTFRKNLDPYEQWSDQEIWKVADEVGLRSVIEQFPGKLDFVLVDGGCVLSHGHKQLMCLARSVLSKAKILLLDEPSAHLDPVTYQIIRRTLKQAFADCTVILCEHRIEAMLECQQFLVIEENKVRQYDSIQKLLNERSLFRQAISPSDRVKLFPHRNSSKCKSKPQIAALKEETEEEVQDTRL

For `COCCCOc1nc(-c2cc(F)cc(OCC(C)C)c2)ccc1C(=O)NS(=O)(=O)c1cccc(N)n1` [Compound 21, N-[(6-amino-2-pyridyl)sulfonyl]-6-(3-fluoro-5-isobutoxy-phenyl)-2-(3-methoxypropoxy)pyridine-3-carboxamide], the Emax fell in the range of 30 to 80% and the half-maximal effective concentration (EC50) – broadly, the concentration giving half of the maximal effect – was under 3 µM.
Regarding `COC(C)(C)CCOc1nc(-c2cc(F)cc(OCC(C)C)c2)ccc1C(=O)NS(=O)(=O)c1cccc(N)n1` [Compound 22, N-[(6-amino-2-pyridyl)sulfonyl]-6-(3-fluoro-5-isobutoxy-phenyl)-2-(3-methoxy-3-methyl-butoxy)pyridine-3-carboxamide], the Emax is 30 to 80% and the EC50 was under 3 µM.
In the same order, the values of `COCC(C)Oc1nc(-c2cc(F)cc(OCC(C)C)c2)ccc1C(=O)NS(=O)(=O)c1cccc(N)n1` (stereo not shown) [Compound 23, N-[(6-amino-2-pyridyl)sulfonyl]-6-(3-fluoro-5-isobutoxy-phenyl)-2-(2-methoxy-1-methyl-ethoxy)pyridine-3-carboxamide] are 30 to 80% and 3 to 10 µM.
As to `CC(C)COc1cc(F)cc(-c2ccc(C(=O)NS(=O)(=O)c3cccc(N)n3)c(OC(C)CC(C)C)n2)c1` (stereo not shown) [Compound 24, N-[(6-amino-2-pyridyl)sulfonyl]-2-(1,3-dimethylbutoxy)-6-(3-fluoro-5-isobutoxy-phenyl)pyridine-3-carboxamide], the Emax is over 80% and the EC50 is under 3 µM.
As to `CC(C)COc1cc(F)cc(-c2ccc(C(=O)NS(=O)(=O)c3cccc(N)n3)c(OC(C)C(C)(C)C)n2)c1` (stereo not shown) [Compound 25, N-[(6-amino-2-pyridyl)sulfonyl]-6-(3-fluoro-5-isobutoxy-phenyl)-2-(1,2,2-trimethylpropoxy)pyridine-3-carboxamide], the Emax fell in the range of 30 to 80% and the EC50 was under 3 µM.
As for `CC(C)COc1cc(F)cc(-c2ccc(C(=O)NS(=O)(=O)c3cccc(N)n3)c(OC(C(C)C)C(C)C)n2)c1` [Compound 26, N-[(6-amino-2-pyridyl)sulfonyl]-6-(3-fluoro-5-isobutoxy-phenyl)-2-(1-isopropyl-2-methyl-propoxy)pyridine-3-carboxamide], the Emax lay within 30 to 80% and the EC50 was under 3 µM.
In the case of `CCCOc1nc(-c2cc(F)cc(OCC(C)C)c2)ccc1C(=O)NS(=O)(=O)c1cccc(N)n1` [Compound 27, N-[(6-amino-2-pyridyl)sulfonyl]-6-(3-fluoro-5-isobutoxy-phenyl)-2-propoxy-pyridine-3-carboxamide], the Emax is over 80% and the concentration giving a half-maximal response (EC50) was under 3 µM.
For `C/C=C/COc1nc(-c2cc(F)cc(OCC(C)C)c2)ccc1C(=O)NS(=O)(=O)c1cccc(N)n1` [Compound 28, N-[(6-amino-2-pyridyl)sulfonyl]-2-[(E)-but-2-enoxy]-6-(3-fluoro-5-isobutoxy-phenyl)pyridine-3-carboxamide] the same measures were 30 to 80% and under 3 µM.
Regarding `CC[C@H](C)Oc1nc(-c2cc(F)cc(OCC(C)C)c2)ccc1C(=O)NS(=O)(=O)c1cccc(N)n1` [Compound 29, N-[(6-amino-2-pyridyl)sulfonyl]-6-(3-fluoro-5-isobutoxy-phenyl)-2-[(1S)-1-methylpropoxy]pyridine-3-carboxamide], the Emax lay in the range of 30 to 80% and the EC50 was under 3 µM.
Turning to `CCOc1nc(-c2cc(F)cc(OCC(C)C)c2)ccc1C(=O)NS(=O)(=O)c1cccc(N)n1` [Compound 30, N-[(6-amino-2-pyridyl)sulfonyl]-2-ethoxy-6-(3-fluoro-5-isobutoxy-phenyl)pyridine-3-carboxamide], the Emax lay in the range of 30 to 80% and the EC50 is under 3 µM.
In the case of `CC(C)COc1cc(F)cc(-c2ccc(C(=O)NS(=O)(=O)c3cccc(N)n3)c(N(C)C(C)C)n2)c1` [Compound 31, N-[(6-amino-2-pyridyl)sulfonyl]-6-(3-fluoro-5-isobutoxy-phenyl)-2-[isopropyl(methyl)amino]pyridine-3-carboxamide], the Emax is over 80% and the EC50 was under 3 µM.
For the compound `CC(C)COc1cc(F)cc(-c2ccc(C(=O)NS(=O)(=O)c3cccc(N)n3)c(OCC(C)(C)C)n2)c1` [Compound 32, N-[(6-amino-2-pyridyl)sulfonyl]-2-(2,2-dimethylpropoxy)-6-(3-fluoro-5-isobutoxy-phenyl)pyridine-3-carboxamide], the Emax was over 80% and the EC50 is under 3 µM.
Consider `CC(C)COc1cc(F)cc(-c2ccc(C(=O)NS(=O)(=O)c3cccc(N)n3)c(OC(C(F)(F)F)C(F)(F)F)n2)c1` [Compound 33, N-[(6-amino-2-pyridyl)sulfonyl]-6-(3-fluoro-5-isobutoxy-phenyl)-2-[2,2,2-trifluoro-1-(trifluoromethyl)ethoxy]pyridine-3-carboxamide], for which the Emax lay in the range of 30 to 80% and the concentration for a half-maximal effect (EC50) was under 3 µM.
Turning to `CCC(Oc1nc(-c2cc(F)cc(OCC(C)C)c2)ccc1C(=O)NS(=O)(=O)c1cccc(N)n1)C(C)(C)C` (stereo not shown) [Compound 34], the Emax is over 80% and the EC50 was under 3 µM.
Consider `CC#CCCOc1nc(-c2cc(F)cc(OCC(C)C)c2)ccc1C(=O)NS(=O)(=O)c1cccc(N)n1` [Compound 35, N-[(6-amino-2-pyridyl)sulfonyl]-6-(3-fluoro-5-isobutoxy-phenyl)-2-pent-3-ynoxy-pyridine-3-carboxamide], for which the Emax was in the range of 30 to 80% and the concentration for a half-maximal effect (EC50) is under 3 µM.
For `CC(C)COc1cc(F)cc(-c2ccc(C(=O)NS(=O)(=O)c3cccc(N)n3)c(OC(C)CC(C)(C)C)n2)c1` (stereo not shown) [Compound 36, N-[(6-amino-2-pyridyl)sulfonyl]-6-(3-fluoro-5-isobutoxy-phenyl)-2-(1,3,3-trimethylbutoxy)pyridine-3-carboxamide] the same measures were 30 to 80% and under 3 µM.
Regarding `CC(C)=C(C)c1nc(-c2cc(F)cc(OCC(C)C)c2)ccc1C(=O)NS(=O)(=O)c1cccc(N)n1` [Compound 37, N-[(6-amino-2-pyridyl)sulfonyl]-2-(1,2-dimethylprop-1-enyl)-6-(3-fluoro-5-isobutoxy-phenyl)pyridine-3-carboxamide], the Emax lay in the range of 30 to 80% and the EC50 is under 3 µM.
As for `CC(C)COc1cc(F)cc(-c2ccc(C(=O)NS(=O)(=O)c3cccc(N)n3)c(OCC(F)F)n2)c1` [Compound 38, N-[(6-amino-2-pyridyl)sulfonyl]-2-(2,2-difluoroethoxy)-6-(3-fluoro-5-isobutoxy-phenyl)pyridine-3-carboxamide], the Emax lay within 30 to 80% and the EC50 fell in the range of 3 to 10 µM.
With `CCCNc1cccc(S(=O)(=O)NC(=O)c2ccc(-c3cc(F)cc(OCC(C)C)c3)nc2NCCC)n1` [Compound 39, 6-(3-fluoro-5-isobutoxy-phenyl)-2-(propylamino)-N-[[6-(propylamino)-2-pyridyl]sulfonyl]pyridine-3-carboxamide], the Emax lay within 30 to 80% and the concentration for a half-maximal effect (EC50) is under 3 µM.
In the case of `CCC(Oc1nc(-c2cc(F)cc(OCC(C)C)c2)ccc1C(=O)NS(=O)(=O)c1cccc(N)n1)C(C)C` (stereo not shown) [Compound 40, N-[(6-amino-2-pyridyl)sulfonyl]-2-(1-ethyl-2-methyl-propoxy)-6-(3-fluoro-5-isobutoxy-phenyl)pyridine-3-carboxamide], the Emax lay in the range of 30 to 80% and the EC50 was under 3 µM.
